Experimental data as given in US8636951B2, “Bio-terrorism counteraction using ozone and hydrogen peroxide” (priority 2010, dated 2014).

System: Bacillus subtilis
Format: cell-based

With `O=[O+][O-]` [ozone] the “A: count of viable Bacillus colonies at 10 dilution” value was “TNTCT” and the “B: count of viable Bacillus colonies at 100 dilution” value was “NTC”.
With `OO` [hydrogen peroxide] the “A: count of viable Bacillus colonies at 10 dilution” value was “TNTCT”, the “B: count of viable Bacillus colonies at 100 dilution” value was “NTC” and the “C: count of viable Bacillus colonies at 1000 dilution” value was 210. For the same molecule, the “D: count of viable Bacillus colonies at 10000 dilution” value was 12 and the “Log10 RED” value was 0 Log10.
